In brackets after ≈: the same amount, converted by molar mass.
What was measured:
Assay type in all cases: functional
Bacillus subtilis = assay: Antibacterial activity against Bacillus subtilis after 48 hr
Pseudomonas aeruginosa = assay: Antibacterial activity against Pseudomonas aeruginosa after 48 hr
Escherichia coli = assay: Antibacterial activity against Escherichia coli after 48 hr
Persicaria hydropiper [1] = assay: Herbicidal activity against Persicaria hydropiper assessed as disease control at 1000 ppm treated in soil during 15 to 20 days relative to control
Eleusine indica [2] = assay: Herbicidal activity against Eleusine indica assessed as disease control at 1000 ppm treated in soil during 15 to 20 days relative to control
Echinochloa crus-galli [3] = assay: Herbicidal activity against Echinochloa crus-galli (barnyard grass) assessed as disease control at 1000 ppm treated in soil during 15 to 20 days relative to control
Fusarium fujikuroi = assay: Antifungal activity against Fusarium fujikuroi after 7 days; set-up: concentration or dose not given beside the values
Xanthomonas axonopodis = assay: Antibacterial activity against Xanthomonas axonopodis after 7 days; set-up: concentration or dose not given beside the values
[4] = system: Pseudoperonospora cubensis; assay: Antifungal activity against Pseudoperonospora cubensis after 7 days; set-up: concentration or dose not given beside the values
Botrytis cinerea = assay: Antifungal activity against Botryotinia fuckeliana after 7 days; set-up: concentration or dose not given beside the values
Pyricularia oryzae = assay: Antifungal activity against Magnaporthe oryzae after 7 days; set-up: concentration or dose not given beside the values
Mycobacterium = assay: Antibacterial activity against Mycobacterium ovicum after 48 hr
Staphylococcus aureus = assay: Antibacterial activity against Staphylococcus aureus after 48 hr
Oryza sativa = assay: Herbicidal activity against Oryza sativa assessed as disease control at 1000 ppm treated in paddy field during 15 to 20 days relative to control
Panonychus citri [5] = assay: Insecticidal activity against Panonychus citri at 500 ppm up to 21 days
Cyperus compressus = assay: Herbicidal activity against Cyperus compressus assessed as disease control at 1000 ppm treated in paddy field during 15 to 20 days relative to control
Echinochloa crus-galli [6] = assay: Herbicidal activity against Echinochloa crus-galli (barnyard grass) assessed as disease control at 1000 ppm treated in paddy field during 15 to 20 days relative to control
Chenopodium album [7] = assay: Herbicidal activity against Chenopodium album assessed as disease control at 1000 ppm treated in foliage during 15 to 20 days relative to control
Amaranthus viridis [8] = assay: Herbicidal activity against Amaranthus viridis assessed as disease control at 1000 ppm treated in foliage during 15 to 20 days relative to control
Persicaria hydropiper [9] = assay: Herbicidal activity against Persicaria hydropiper assessed as disease control at 1000 ppm treated in foliage during 15 to 20 days relative to control
Eleusine indica [10] = assay: Herbicidal activity against Eleusine indica assessed as disease control at 1000 ppm treated in foliage during 15 to 20 days relative to control
Echinochloa crus-galli [11] = assay: Herbicidal activity against Echinochloa crus-galli (barnyard grass) assessed as disease control at 1000 ppm treated in foliage during 15 to 20 days relative to control
Amaranthus viridis [12] = assay: Herbicidal activity against Amaranthus viridis assessed as disease control at 1000 ppm treated in soil during 15 to 20 days relative to control
Chenopodium album [13] = assay: Herbicidal activity against Chenopodium album assessed as disease control at 1000 ppm treated in soil during 15 to 20 days relative to control
Panonychus citri [14] = assay: Insecticidal activity against Panonychus citri at 200 ppm up to 21 days

Row | Structure (SMILES) | MIC (Bacillus subtilis) [µg/mL] | MIC (Pseudomonas aeruginosa) [µg/mL] | Activity (Persicaria hydropiper [1]) [%] | Activity (Eleusine indica [2]) [%] | Activity (Echinochloa crus-galli [3]) [%] | Activity (Fusarium fujikuroi) [%] | Activity (Xanthomonas axonopodis) [%] | Activity [4] [%] | Activity (Botrytis cinerea) [%] | Activity (Pyricularia oryzae) [%] | Activity (Oryza sativa) [%] | Activity (Cyperus compressus) [%] | Activity (Echinochloa crus-galli [6]) [%] | Activity (Chenopodium album [7]) [%] | Activity (Amaranthus viridis [8]) [%] | Activity (Persicaria hydropiper [9]) [%] | Activity (Eleusine indica [10]) [%] | Activity (Echinochloa crus-galli [11]) [%] | Activity (Amaranthus viridis [12]) [%] | Activity (Chenopodium album [13]) [%] | also measured
1 | c1ccc2[nH]c(-c3ccnc4ccccc34)nc2c1 | 100 (≈ 408 µM) | 100 (≈ 408 µM) | – | – | – | – | – | – | – | – | – | – | – | – | – | – | – | – | – | – | MIC (Escherichia coli): 100 µg/mL (≈ 408 µM)
2 | c1ccc2nc(-c3nc4ccccc4[nH]3)ccc2c1 | – | 100 (≈ 408 µM) | – | – | – | – | – | – | – | – | – | – | – | – | – | – | – | – | – | – | –
3 | Clc1ccc2nc(-c3ccccn3)[nH]c2c1 | 50 (≈ 218 µM) | 100 (≈ 435 µM) | <39 | <39 | <39 | <39 | 60 | >80 | >80 | 60 | <39 | <39 | <39 | <39 | <39 | <39 | <39 | <39 | <39 | <39 | MIC (Mycobacterium): 50 µg/mL (≈ 218 µM); MIC (Escherichia coli): 50 µg/mL (≈ 218 µM); MIC (Staphylococcus aureus): 50 µg/mL (≈ 218 µM); Activity (Panonychus citri [5]): 32.5%
4 | Clc1cccc2nc(-c3ccccn3)[nH]c12 | – | – | <39 | <39 | <39 | <39 | 60 | <39 | >80 | >80 | <39 | <39 | <39 | <39 | <39 | <39 | <39 | <39 | <39 | <39 | Activity (Panonychus citri [5]): 91.5%
5 | Clc1ccc2sc(-c3ccccn3)nc2c1 | – | – | <39 | <39 | <39 | <39 | <39 | <39 | <39 | <39 | <39 | >80 | <39 | 40 | 60 | <39 | <39 | <39 | <39 | <39 | –
6 | FC(F)(F)c1ccc2sc(-c3ccccn3)nc2c1 | – | – | <39 | <39 | <39 | <39 | <39 | <39 | <39 | <39 | <39 | >80 | >80 | >80 | >80 | <39 | <39 | <39 | 60 | <39 | Activity (Panonychus citri [5]): 81.3%
7 | Cc1ccc2nc(-c3ccccn3)[nH]c2c1 | 100 (≈ 478 µM) | – | <39 | <39 | <39 | <39 | 40 | 60 | <39 | 60 | <39 | <39 | <39 | 60 | 40 | <39 | <39 | <39 | <39 | <39 | MIC (Escherichia coli): 50 µg/mL (≈ 239 µM)
8 | c1ccc2[nH]c(-c3ccncc3)nc2c1 | – | 100 (≈ 512 µM) | – | – | – | – | – | – | – | – | – | – | – | – | – | – | – | – | – | – | –
9 | O=[N+]([O-])c1ccc2[nH]c(-c3ccccn3)nc2c1 | 50 (≈ 208 µM) | 100 (≈ 416 µM) | <39 | <39 | <39 | <39 | 40 | <39 | <39 | 60 | <39 | <39 | <39 | <39 | <39 | <39 | <39 | <39 | <39 | <39 | MIC (Mycobacterium): 50 µg/mL (≈ 208 µM); MIC (Escherichia coli): 10 µg/mL (≈ 41.6 µM); MIC (Staphylococcus aureus): 50 µg/mL (≈ 208 µM)
10 | c1ccc(-c2nc3ccccc3[nH]2)nc1 | 100 (≈ 512 µM) | 100 (≈ 512 µM) | <39 | <39 | <39 | <39 | 60 | >80 | 60 | <39 | <39 | <39 | <39 | <39 | <39 | <39 | <39 | <39 | <39 | <39 | –
11 | OC(c1ccc(Cl)cc1)(c1ccc(Cl)cc1)C(Cl)(Cl)Cl [DICOFOL] | – | – | – | – | – | – | – | – | – | – | – | – | – | – | – | – | – | – | – | – | Activity (Panonychus citri [14]): 98.3%

Reference: ChEMBL document CHEMBL3045339, “Synthesis of benzoxazoles, benzothiazoles and benzimidazoles and evaluation of their antifungal, insecticidal and herbicidal activities” (1992)
